Activity calls are given as the source filed them. No cut-off for these calls is given here.
Tests used:
[1] = target: Serine/threonine-protein kinase/endoribonuclease IRE1 (Homo sapiens, UniProt O75460); assay: Inhibition of human recombinant IRE1
[2] = target: Tyrosine-protein kinase Lyn (Homo sapiens, UniProt P07948); assay: Inhibition of human recombinant Lyn
[3] = target: Mitogen-activated protein kinase kinase kinase 9 (Homo sapiens, UniProt P80192); assay: Inhibition of human recombinant MLK1
[4] = target: Serine/threonine-protein kinase PAK 1 (Homo sapiens, UniProt Q13153); assay: Inhibition of human recombinant PAK1
[5] = target: Serine/threonine-protein kinase PAK 2 (Homo sapiens, UniProt Q13177); assay: Inhibition of human recombinant PAK2
Chain of Serine/threonine-protein kinase PAK 2 (Q13177 whole entry): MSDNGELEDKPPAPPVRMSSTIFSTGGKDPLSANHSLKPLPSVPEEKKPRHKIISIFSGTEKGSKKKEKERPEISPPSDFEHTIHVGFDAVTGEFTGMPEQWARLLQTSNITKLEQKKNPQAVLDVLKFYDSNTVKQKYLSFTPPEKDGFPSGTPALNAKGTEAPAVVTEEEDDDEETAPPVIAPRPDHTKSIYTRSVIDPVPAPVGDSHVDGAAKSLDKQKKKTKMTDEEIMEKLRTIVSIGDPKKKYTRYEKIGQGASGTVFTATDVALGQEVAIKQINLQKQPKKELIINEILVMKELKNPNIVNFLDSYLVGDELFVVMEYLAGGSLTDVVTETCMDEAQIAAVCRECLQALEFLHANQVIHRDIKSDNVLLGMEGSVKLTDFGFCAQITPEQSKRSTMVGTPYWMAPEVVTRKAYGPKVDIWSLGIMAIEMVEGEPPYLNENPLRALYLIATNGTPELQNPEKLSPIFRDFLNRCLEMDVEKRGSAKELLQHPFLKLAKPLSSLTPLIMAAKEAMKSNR

[6] = target: Serine/threonine-protein kinase D1 (Homo sapiens, UniProt Q15139); assay: Inhibition of human recombinant PKCmu
[7] = target: Serine/threonine-protein kinase D2 (Homo sapiens, UniProt Q9BZL6); assay: Inhibition of human recombinant PKD2
Jurkat = assay: Cytotoxicity against human Jurkat cells assessed as cell viability after 72 hrs by MTT assay; format: functional, cell-based
Raji = assay: Cytotoxicity against human Raji cells assessed as cell viability after 72 hrs by MTT assay; format: functional, cell-based
HCT-116 = assay: Cytotoxicity against human HCT116 cells assessed as cell viability after 72 hrs by MTT assay; format: functional, cell-based; details: HCT-116, 72 h
U-251 = assay: Cytotoxicity against human U251 cells assessed as cell viability after 72 hrs by MTT assay; format: functional, cell-based; details: U-251, 72 h
MDA-MB-435 = assay: Cytotoxicity against human MDA-MB-435 cells assessed as cell viability after 72 hrs by MTT assay; format: functional, cell-based; details: MDA-MB-435, 72 h
MDA-MB-453 = assay: Cytotoxicity against human MDA-MB-453 cells assessed as cell viability after 72 hrs by MTT assay; format: functional, cell-based; details: MDA-MB-453, 72 h
ZR-75-1 = assay: Cytotoxicity against human ZR-75-1 cells assessed as cell viability after 72 hrs by MTT assay; format: functional, cell-based; details: ZR-75-1, 72 h
BT-474 = assay: Cytotoxicity against human BT474 cells assessed as cell viability after 72 hrs by MTT assay; format: functional, cell-based; details: BT-474, 72 h
[8] = Cytotoxicity against human PC9 cells assessed as cell viability after 72 hrs by MTT assay; format: functional, cell-based; details: PC-9, 72 h
[9] = Cytotoxicity against human Calu6 cells assessed as cell viability after 72 hrs by MTT assay; format: functional, cell-based; details: Calu-6, 72 h
HepG2 = assay: Cytotoxicity against human HepG2 cells assessed as cell viability after 72 hrs by MTT assay; format: functional, cell-based; details: HepG2, 72 h
[10] = Cytotoxicity against human OCI-LY19 cells assessed as cell viability after 72 hrs by MTT assay; format: functional, cell-based; details: OCI-LY19, 72 h
[11] = target: Receptor-type tyrosine-protein kinase FLT3 (Homo sapiens) (UniProt P36888); assay: Inhibition of FLT3 in human MV4-11 cells assessed as down regulation of STAT5 phosphorylation at >0.001 uM after 6 hrs by Western blotting analysis; format: cell-based
[12] = target: T1, Receptor-type tyrosine-protein kinase FLT3 (Homo sapiens, UniProt P36888); assay: Inhibition of human recombinant Flt3
T1 sequence (P36888 whole entry): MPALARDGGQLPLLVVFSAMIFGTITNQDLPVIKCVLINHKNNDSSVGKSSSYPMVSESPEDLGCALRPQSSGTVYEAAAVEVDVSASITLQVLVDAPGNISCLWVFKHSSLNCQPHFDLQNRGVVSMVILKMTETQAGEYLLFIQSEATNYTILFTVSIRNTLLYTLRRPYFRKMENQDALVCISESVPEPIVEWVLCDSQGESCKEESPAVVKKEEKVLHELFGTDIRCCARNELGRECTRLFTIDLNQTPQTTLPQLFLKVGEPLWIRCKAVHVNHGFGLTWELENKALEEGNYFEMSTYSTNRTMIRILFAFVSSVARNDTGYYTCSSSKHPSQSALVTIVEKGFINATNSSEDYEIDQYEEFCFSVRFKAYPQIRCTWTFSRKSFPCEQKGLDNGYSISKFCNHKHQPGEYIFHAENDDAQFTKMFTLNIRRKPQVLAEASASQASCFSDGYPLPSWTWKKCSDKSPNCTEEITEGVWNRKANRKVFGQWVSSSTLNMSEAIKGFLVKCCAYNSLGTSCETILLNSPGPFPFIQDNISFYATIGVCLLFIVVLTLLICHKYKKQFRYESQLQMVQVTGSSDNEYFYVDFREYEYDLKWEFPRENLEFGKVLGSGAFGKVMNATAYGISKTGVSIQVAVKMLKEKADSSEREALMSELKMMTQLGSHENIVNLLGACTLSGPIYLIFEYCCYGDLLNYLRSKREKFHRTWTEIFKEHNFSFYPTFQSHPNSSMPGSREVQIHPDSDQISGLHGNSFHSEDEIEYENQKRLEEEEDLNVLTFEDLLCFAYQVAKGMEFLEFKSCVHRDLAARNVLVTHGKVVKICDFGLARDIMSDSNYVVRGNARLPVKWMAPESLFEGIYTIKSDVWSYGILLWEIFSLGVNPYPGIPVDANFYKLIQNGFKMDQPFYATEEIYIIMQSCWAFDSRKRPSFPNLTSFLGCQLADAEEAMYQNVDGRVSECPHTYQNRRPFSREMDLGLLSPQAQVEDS

[13] = target: Platelet-derived growth factor receptor beta (Homo sapiens, UniProt P09619); assay: Inhibition of human recombinant PDGFRbeta
Chain of Platelet-derived growth factor receptor beta (P09619 whole entry): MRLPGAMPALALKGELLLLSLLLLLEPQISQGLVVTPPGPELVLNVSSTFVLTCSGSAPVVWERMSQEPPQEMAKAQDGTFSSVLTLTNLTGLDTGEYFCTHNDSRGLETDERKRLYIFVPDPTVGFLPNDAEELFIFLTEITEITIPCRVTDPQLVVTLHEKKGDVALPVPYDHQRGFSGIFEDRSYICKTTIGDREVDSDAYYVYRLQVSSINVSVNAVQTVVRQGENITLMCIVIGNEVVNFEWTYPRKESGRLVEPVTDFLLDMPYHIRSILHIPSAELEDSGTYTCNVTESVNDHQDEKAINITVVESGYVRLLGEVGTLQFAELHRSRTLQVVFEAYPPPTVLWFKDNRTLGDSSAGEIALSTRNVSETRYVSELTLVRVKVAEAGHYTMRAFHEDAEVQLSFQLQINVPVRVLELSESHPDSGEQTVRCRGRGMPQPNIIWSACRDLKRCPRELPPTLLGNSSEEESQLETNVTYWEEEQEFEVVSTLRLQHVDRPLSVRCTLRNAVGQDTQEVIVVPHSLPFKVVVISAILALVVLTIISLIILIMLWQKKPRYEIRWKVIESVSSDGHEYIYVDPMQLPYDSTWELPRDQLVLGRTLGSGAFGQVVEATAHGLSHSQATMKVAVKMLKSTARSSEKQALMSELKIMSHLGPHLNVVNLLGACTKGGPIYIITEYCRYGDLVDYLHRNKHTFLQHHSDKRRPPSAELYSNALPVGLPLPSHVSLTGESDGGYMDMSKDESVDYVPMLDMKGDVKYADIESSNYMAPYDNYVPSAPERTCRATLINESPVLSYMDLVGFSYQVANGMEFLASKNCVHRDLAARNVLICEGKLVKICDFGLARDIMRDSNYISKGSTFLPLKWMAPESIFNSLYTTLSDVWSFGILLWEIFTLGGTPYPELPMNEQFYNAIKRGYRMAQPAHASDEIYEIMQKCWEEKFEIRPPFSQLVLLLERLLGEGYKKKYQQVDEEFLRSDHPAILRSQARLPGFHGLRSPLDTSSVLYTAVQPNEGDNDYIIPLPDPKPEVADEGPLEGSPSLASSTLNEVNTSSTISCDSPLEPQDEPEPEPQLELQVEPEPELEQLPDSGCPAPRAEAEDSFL

[14] = target: Vascular endothelial growth factor receptor 1 (Homo sapiens, UniProt P17948); assay: Inhibition of human recombinant Flt1
Chain of Vascular endothelial growth factor receptor 1 (P17948 whole entry): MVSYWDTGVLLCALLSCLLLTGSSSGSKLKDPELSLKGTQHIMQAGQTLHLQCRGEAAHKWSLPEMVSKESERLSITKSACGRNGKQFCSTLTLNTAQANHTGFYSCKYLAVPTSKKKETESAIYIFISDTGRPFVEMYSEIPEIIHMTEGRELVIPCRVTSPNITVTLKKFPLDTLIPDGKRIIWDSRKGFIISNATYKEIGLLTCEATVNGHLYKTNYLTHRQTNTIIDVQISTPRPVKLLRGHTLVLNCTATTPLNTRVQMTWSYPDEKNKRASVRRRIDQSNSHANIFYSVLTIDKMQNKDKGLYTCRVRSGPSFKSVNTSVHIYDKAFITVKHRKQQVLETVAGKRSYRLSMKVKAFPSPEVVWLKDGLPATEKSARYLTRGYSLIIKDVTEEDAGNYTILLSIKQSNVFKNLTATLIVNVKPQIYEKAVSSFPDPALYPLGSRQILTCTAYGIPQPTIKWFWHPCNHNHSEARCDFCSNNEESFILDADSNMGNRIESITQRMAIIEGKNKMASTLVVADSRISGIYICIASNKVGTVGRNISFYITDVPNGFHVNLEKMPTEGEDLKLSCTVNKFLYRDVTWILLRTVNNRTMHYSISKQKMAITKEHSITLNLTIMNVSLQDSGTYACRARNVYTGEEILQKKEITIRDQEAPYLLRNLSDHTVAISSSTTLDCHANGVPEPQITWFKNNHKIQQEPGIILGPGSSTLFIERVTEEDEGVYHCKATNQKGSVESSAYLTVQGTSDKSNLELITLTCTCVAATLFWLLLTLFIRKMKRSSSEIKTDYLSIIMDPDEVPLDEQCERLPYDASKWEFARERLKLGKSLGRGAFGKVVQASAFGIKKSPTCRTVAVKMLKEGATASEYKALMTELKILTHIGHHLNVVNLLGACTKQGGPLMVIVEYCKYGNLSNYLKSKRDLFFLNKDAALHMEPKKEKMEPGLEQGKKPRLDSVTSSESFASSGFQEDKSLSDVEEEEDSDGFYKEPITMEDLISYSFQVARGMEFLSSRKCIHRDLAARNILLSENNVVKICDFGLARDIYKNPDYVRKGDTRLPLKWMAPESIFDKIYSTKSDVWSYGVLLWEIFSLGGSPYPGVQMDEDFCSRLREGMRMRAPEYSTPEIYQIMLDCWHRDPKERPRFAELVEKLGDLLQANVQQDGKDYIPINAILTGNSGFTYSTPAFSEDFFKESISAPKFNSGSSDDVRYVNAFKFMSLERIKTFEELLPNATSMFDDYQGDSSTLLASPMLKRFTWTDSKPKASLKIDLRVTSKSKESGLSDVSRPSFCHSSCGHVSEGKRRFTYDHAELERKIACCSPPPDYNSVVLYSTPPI

[15] = target: Proto-oncogene tyrosine-protein kinase receptor Ret (Homo sapiens, UniProt P07949); assay: Inhibition of human recombinant Ret
[16] = target: Tyrosine-protein kinase ABL1 (Homo sapiens, UniProt P00519); assay: Inhibition of human recombinant Abl
[17] = target: 5'-AMP-activated protein kinase catalytic subunit alpha-1 (Homo sapiens, UniProt Q13131); assay: Inhibition of human recombinant AMPKalpha1
[18] = target: Tyrosine-protein kinase receptor UFO (Homo sapiens, UniProt P30530); assay: Inhibition of human recombinant Axl
[19] = target: Tyrosine-protein kinase BTK (Homo sapiens, UniProt Q06187); assay: Inhibition of human recombinant BTK
Chain of Tyrosine-protein kinase BTK (Q06187 whole entry): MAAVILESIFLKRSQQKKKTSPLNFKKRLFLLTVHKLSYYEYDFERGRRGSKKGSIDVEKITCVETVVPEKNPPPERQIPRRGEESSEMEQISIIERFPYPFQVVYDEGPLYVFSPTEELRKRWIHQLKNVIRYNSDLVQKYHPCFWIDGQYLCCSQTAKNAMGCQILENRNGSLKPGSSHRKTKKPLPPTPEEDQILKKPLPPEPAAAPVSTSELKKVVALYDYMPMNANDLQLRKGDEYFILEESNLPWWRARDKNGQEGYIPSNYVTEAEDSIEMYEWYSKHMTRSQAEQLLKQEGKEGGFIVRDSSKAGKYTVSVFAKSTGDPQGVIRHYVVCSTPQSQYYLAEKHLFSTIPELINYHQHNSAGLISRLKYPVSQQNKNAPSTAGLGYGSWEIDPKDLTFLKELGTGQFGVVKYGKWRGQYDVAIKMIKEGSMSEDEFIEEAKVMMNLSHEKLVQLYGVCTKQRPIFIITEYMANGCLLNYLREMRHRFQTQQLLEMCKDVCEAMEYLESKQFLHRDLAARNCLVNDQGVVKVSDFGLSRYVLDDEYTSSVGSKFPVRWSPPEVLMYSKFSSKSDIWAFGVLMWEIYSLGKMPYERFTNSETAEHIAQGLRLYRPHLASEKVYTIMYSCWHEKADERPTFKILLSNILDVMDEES

[20] = target: Calcium/calmodulin-dependent protein kinase type IV (Homo sapiens, UniProt Q16566); assay: Inhibition of human recombinant CaMK4
[21] = target: Serine/threonine-protein kinase Chk1 (Homo sapiens, UniProt O14757); assay: Inhibition of human recombinant CHK1
Chain of Serine/threonine-protein kinase Chk1 (O14757 whole entry): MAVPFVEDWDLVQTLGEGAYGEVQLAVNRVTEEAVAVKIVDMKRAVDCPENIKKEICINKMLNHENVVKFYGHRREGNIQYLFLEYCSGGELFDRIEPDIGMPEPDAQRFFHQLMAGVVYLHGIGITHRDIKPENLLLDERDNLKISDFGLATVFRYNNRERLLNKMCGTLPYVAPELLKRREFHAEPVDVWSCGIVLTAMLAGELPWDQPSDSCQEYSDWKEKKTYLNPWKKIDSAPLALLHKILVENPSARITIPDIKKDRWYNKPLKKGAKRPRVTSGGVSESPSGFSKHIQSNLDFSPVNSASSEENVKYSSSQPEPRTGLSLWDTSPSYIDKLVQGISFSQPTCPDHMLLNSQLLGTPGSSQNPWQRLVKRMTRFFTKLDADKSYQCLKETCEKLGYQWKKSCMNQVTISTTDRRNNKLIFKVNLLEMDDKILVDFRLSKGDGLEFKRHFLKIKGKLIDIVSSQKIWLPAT

Ephrin type-B receptor 2 = Ephrin type-B receptor 2 (Homo sapiens, UniProt P29323); assay: Inhibition of human recombinant EphB2
[22] = target: Receptor tyrosine-protein kinase erbB-4 (Homo sapiens, UniProt Q15303); assay: Inhibition of human recombinant ErbB4
[23] = target: Fibroblast growth factor receptor 2 (Homo sapiens, UniProt P21802); assay: Inhibition of human recombinant FGFR2
[24] = target: Glycogen synthase kinase-3 beta (Homo sapiens, UniProt P49841); assay: Inhibition of human recombinant GSK3beta
Chain of Glycogen synthase kinase-3 beta (P49841 whole entry): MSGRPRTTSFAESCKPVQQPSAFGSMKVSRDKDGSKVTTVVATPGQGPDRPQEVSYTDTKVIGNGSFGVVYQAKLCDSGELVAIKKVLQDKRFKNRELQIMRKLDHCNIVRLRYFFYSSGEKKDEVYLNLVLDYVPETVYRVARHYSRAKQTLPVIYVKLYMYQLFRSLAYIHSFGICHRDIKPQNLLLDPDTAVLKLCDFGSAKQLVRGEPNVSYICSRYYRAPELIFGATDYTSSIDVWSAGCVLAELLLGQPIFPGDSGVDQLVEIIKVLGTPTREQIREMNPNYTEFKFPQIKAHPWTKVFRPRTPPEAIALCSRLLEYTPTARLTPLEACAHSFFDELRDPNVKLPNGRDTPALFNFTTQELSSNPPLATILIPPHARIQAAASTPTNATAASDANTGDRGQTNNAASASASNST

Chain of Tyrosine-protein kinase Lyn (P07948 whole entry): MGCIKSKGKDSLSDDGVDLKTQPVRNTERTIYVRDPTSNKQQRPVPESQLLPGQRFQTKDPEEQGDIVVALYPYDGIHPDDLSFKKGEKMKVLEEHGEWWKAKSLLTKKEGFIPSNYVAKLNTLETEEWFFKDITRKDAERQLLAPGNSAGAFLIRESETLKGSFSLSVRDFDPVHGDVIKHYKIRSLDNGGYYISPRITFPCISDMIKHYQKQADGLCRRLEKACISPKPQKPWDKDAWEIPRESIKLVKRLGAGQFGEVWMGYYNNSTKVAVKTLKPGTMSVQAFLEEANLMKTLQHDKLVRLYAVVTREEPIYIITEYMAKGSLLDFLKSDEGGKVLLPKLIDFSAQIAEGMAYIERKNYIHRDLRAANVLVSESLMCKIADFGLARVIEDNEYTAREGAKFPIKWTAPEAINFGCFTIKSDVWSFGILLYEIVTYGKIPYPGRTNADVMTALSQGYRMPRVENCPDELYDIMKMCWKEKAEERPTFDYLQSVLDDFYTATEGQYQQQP

In the case of `CN(C)CCCNC(=O)c1csc2nc(-c3ccc(NC(=O)Nc4cc(C(C)(C)C)on4)cc3)cn12`, the IC50 [1] is reported as > 10 µM, the IC50 [2] is reported as > 10 µM and the IC50 [3] is reported as > 10 µM. For the same compound, the IC50 [4] was > 10 µM, the IC50 [5] was > 10 µM and the IC50 [6] was > 10 µM. For the same compound, the IC50 [7] was > 10 µM, the IC50 (Jurkat) was 10 µM and the IC50 (Raji) was > 10 µM. For the same compound, the IC50 (HCT-116) was 10 µM, the IC50 (U-251) was > 10 µM and the IC50 (MDA-MB-435) was > 10 µM. For the same compound, the IC50 (MDA-MB-453) was > 10 µM, the IC50 (ZR-75-1) was > 10 µM and the IC50 (BT-474) was 10 µM. The IC50 [8] was > 10 µM, the IC50 [9] was 10 µM and the IC50 (HepG2) was 10 µM. For the same compound, the IC50 [10] was 3.3 µM, the inhibition [11] was “Active” and the IC50 [12] was 0.022 µM. It also gave an IC50 [13] of 1.98 µM, an IC50 [14] of 2.83 µM and an IC50 [15] of 0.986 µM. For the same compound, the IC50 [16] was > 10 µM, the IC50 [17] was > 10 µM and the IC50 [18] was > 10 µM. For the same compound, the IC50 [19] was > 10 µM, the IC50 [20] was > 10 µM and the IC50 [21] was > 10 µM. The IC50 (Ephrin type-B receptor 2) was > 10 µM, the IC50 [22] was > 10 µM and the IC50 [23] was > 10 µM. For the same compound, the IC50 [24] was > 10 µM.

From ChEMBL document CHEMBL3621115, “Discovery of 6-phenylimidazo[2,1-b]thiazole derivatives as a new type of FLT3 inhibitors” (Bioorg Med Chem Lett, 2015)
